Data on three compounds can be found in patent publication US11613522B2, “Herbicidally active 3-phenylisoxazoline-5-carboxamides of tetrahydro- and dihydrofurancarboxamides” (BAYER AKTIENGESELLSCHAFT, priority 2017, dated 2023).

Common to all, as to format: in vivo
In test [1] the test system is Viola tricolor. Put plainly: Pre-emergence herbicidal activity against VIOTR. The note with it: Viola tricolor, 504 h, dosage 80 g/ha, scored visually after about 3 weeks vs untreated controls. The gist of the method: (§1)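 Seeds sown in pots and covered with soil; compounds formulated as WP or EC were sprayed onto the soil surface as aqueous suspension/emulsion with 0.5% additive at 600 l/ha water. Greenhouse growth; visual percent activity versus untreated controls after about 3 weeks (100% = plants dead, 0% = like control).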

Test [2] relates to Alopecurus myosuroides. The test is described as follows: Post-emergence herbicidal activity against ALOMY. The note with it: Alopecurus myosuroides, 504 h, dosage 320 g/ha, rated visually after about 3 weeks. The gist of the method:
(§2)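 Seeds sown in sandy loam, greenhouse-grown; at one-leaf stage (2–3 wk) sprayed with WP/EC in water + 0.5% additive, 600 l/ha. ~3 wk greenhouse hold, then visual % activity vs untreated (100% = plants dead).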

The subject of test [3] is Pharbitis purpurea. The test is described as follows: Pre-emergence herbicidal activity against PHBPU. The note with it: dosage 80 g/ha, scored visually after about 3 weeks vs untreated controls. The gist of the method:
as §1

For test [4], the system named is Lolium rigidum. The test is described as follows: Pre-emergence herbicidal activity against LOLRI. The note with it: Lolium rigidum, 504 h, dosage 80 g/ha, scored visually after about 3 weeks vs untreated controls. The gist of the method:
as §1

Test [5] relates to Echinochloa crus-galli. The test is described as follows: Post-emergence herbicidal activity against ECHCG. As to conditions: Echinochloa crus-galli, 504 h, dosage 320 g/ha, rated visually after about 3 weeks. The gist of the method:
as §2

For test [6], the system named is Amaranthus retroflexus. The test is described as follows: Pre-emergence herbicidal activity against AMARE. The note with it: Amaranthus retroflexus, 504 h, dosage 80 g/ha, scored visually after about 3 weeks vs untreated controls. The gist of the method:
as §1

The test system of test [7] is Setaria viridis. Put plainly: Post-emergence herbicidal activity against SETVI. The note with it: Setaria viridis, 504 h, dosage 320 g/ha, rated visually after about 3 weeks. The gist of the method:
as §2

Test [8] concerns Abutilon theophrasti. Put plainly: Post-emergence herbicidal activity against ABUTH. As to conditions: Abutilon theophrasti, 504 h, dosage 320 g/ha, rated visually after about 3 weeks. The gist of the method:
as §2

The subject of test [9] is Stellaria media. The test is described as follows: Pre-emergence herbicidal activity against STEME. As to conditions: Stellaria media, 504 h, dosage 80 g/ha, scored visually after about 3 weeks vs untreated controls. The gist of the method: as §1
The test system of test [10] is Viola tricolor. The test is described as follows: Post-emergence herbicidal activity against VIOTR. As to conditions: Viola tricolor, 504 h, dosage 320 g/ha, rated visually after about 3 weeks. The gist of the method: as §2
Test [11] deals with Cyperus esculentus. Put plainly: Pre-emergence herbicidal activity against CYPES. The note with it: dosage 80 g/ha, scored visually after about 3 weeks vs untreated controls. The source says:
(§3) 1. Pre-emergence herbicidal action against harmful plants and crop plant compatibility Seeds of monocotyledonous and dicotyledonous weed plants and crop plants are placed in plastic or wood fiber pots and covered with soil. The compounds of the invention, formulated in the form of wettable powders (WP) or as emulsion concentrates (EC), are then applied onto the surface of the covering soil as aqueous suspension or emulsion with addition of 0.5% additive at a water application rate of 600 l/ha (converted). After the treatment, the pots are placed in a greenhouse and kept under good growth conditions for the trial plants. After about 3 weeks, the effect of the preparations is scored visually in comparison with untreated controls as percentages. For example, 100% activity=the plants have died, 0% activity=like control plants. [table]

Test [12] concerns Hordeum murinum. Put plainly: Post-emergence herbicidal activity against HORMU. The note with it: Hordeum murinum, 504 h, dosage 320 g/ha, rated visually after about 3 weeks. The gist of the method: as §2
Test [13] relates to Echinochloa crus-galli. Put plainly: Pre-emergence herbicidal activity against ECHCG. As to conditions: Echinochloa crus-galli, 504 h, dosage 80 g/ha, scored visually after about 3 weeks vs untreated controls. The gist of the method: as §1
Test [14] concerns Setaria viridis. Put plainly: Pre-emergence herbicidal activity against SETVI. The note with it: Setaria viridis, 504 h, dosage 80 g/ha, scored visually after about 3 weeks vs untreated controls. The gist of the method:
as §1

Test [15] concerns Amaranthus retroflexus. Put plainly: Post-emergence herbicidal activity against AMARE. As to conditions: Amaranthus retroflexus, 504 h, dosage 320 g/ha, rated visually after about 3 weeks. The gist of the method: as §2
Test [16] relates to Lolium rigidum. Put plainly: Post-emergence herbicidal activity against LOLRI. The note with it: Lolium rigidum, 504 h, dosage 320 g/ha, rated visually after about 3 weeks. The gist of the method:
as §2

Test [17] deals with Polygonum convolvulus. The test is described as follows: Pre-emergence herbicidal activity against POLCO. As to conditions: Fallopia convolvulus, 504 h, dosage 80 g/ha, scored visually after about 3 weeks vs untreated controls. The gist of the method:
as §1

Test [18] relates to Alopecurus myosuroides. The test is described as follows: Pre-emergence herbicidal activity against ALOMY. As to conditions: Alopecurus myosuroides, 504 h, dosage 80 g/ha, scored visually after about 3 weeks vs untreated controls. The gist of the method: as §1
For test [19], the system named is Veronica persica. The test is described as follows: Post-emergence herbicidal activity against VERPE. As to conditions: Veronica persica, 504 h, dosage 320 g/ha, rated visually after about 3 weeks. The gist of the method: as §2
Test [20] relates to Veronica persica. Put plainly: Pre-emergence herbicidal activity against VERPE. As to conditions: Veronica persica, 504 h, dosage 80 g/ha. The gist of the method:
as §1

In test [21] the test system is Avena fatua. Put plainly: Pre-emergence herbicidal activity against AVEFA. As to conditions: Avena fatua, 504 h, dosage 80 g/ha, scored visually after about 3 weeks vs untreated controls, read-out: Pre-emergence herbicidal activity in % against AVEVA (AVEFA). The gist of the method: as §1
A short description of test [22]: Pre-emergence herbicidal action against harmful plants (summary of the tables). As to conditions: 504 h, application rate of 0.08 kg of active substance or less per hectare, read-out: herbicidal action, pre-emergence treatment (very good activity). The gist of the method:
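Seeds of weeds and crops were covered with soil, then WP or EC formulations were sprayed onto the soil surface pre-emergence at 600 l/ha water with 0.5% additive. Plants were grown in a greenhouse for about 3 weeks, and damage was scored visually as a percentage versus untreated controls (100% = plants dead).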

The subject of test [23] is Pharbitis purpurea. Put plainly: Post-emergence herbicidal activity against PHBPU. The note with it: Ipomoea purpurea, 504 h, dosage 320 g/ha, rated visually after about 3 weeks. The gist of the method: as §2
The test system of test [24] is Stellaria media. Put plainly: Post-emergence herbicidal activity against STEME. The note with it: Stellaria media, 504 h, dosage 320 g/ha, rated visually after about 3 weeks. The gist of the method: as §2
Test [25] relates to Hordeum murinum. The test is described as follows: Pre-emergence herbicidal activity against HORMU. The note with it: Hordeum murinum, 504 h, dosage 80 g/ha. The gist of the method:
as §1

Test [26] deals with Abutilon theophrasti. Put plainly: Pre-emergence herbicidal activity against ABUTH. As to conditions: dosage 80 g/ha, scored visually after about 3 weeks vs untreated controls.
Source text: as §3

Test [27] concerns Polygonum convolvulus. Put plainly: Post-emergence herbicidal activity against POLCO. The note with it: Fallopia convolvulus, 504 h, dosage 320 g/ha, rated visually after about 3 weeks. The gist of the method: as §2
In test [28] the test system is Avena fatua. The test is described as follows: Post-emergence herbicidal activity against AVEFA. As to conditions: Avena fatua, 504 h, dosage 320 g/ha, rated visually after about 3 weeks. The gist of the method:
as §2

In the case of `C=C[C@]1(C(=O)N[C@@H]2CO[C@H](C(=O)NS(C)(=O)=O)C2)CC(c2cc(F)cc(F)c2)=NO1` (mixture of isomers) [Example I-16, (5S)-3-(3,5-difluorophenyl)-N-[cis-5-(methylsulfonylcarbamoyl)tetrahydrofuran-3-yl]-5-vinyl-4H-isoxazole-5-carboxamide], the pest or weed control at 80 g/ha in [1], in test [4], in [6], in test [9], in test [13] and in [14] was 100% throughout. The pest or weed control at 80 g/ha was 100% in test [17]; 100% in test [18]; 90% in test [20]; 100% in test [21]; 80 to 100% in test [22]; 100% in test [25]. The pest or weed control at 320 g/ha was determined as 90% in [2]; 90% in [5]; 80% in test [7]; 80% in test [8]; 80% in test [10]; 80% in test [12]. The pest or weed control at 320 g/ha was determined as 90% in test [15]; 90% in test [16]; 80% in test [19]; 80% in [23]; 90% in test [24]. The “Pre-emergence herbicidal activity in % against PHBPU” value in [3] was 90%. The “Pre-emergence herbicidal activity in % against CYPES” value in test [11] came out at 100%.
On to `C=C[C@]1(C(=O)N[C@@H]2CO[C@H](C(=O)N(C)C)C2)CC(c2cc(F)cc(F)c2)=NO1` (mixture of isomers) [Example I-17, (5S)-3-(3,5-difluorophenyl)-N-[cis-5-(dimethylcarbamoyl)tetrahydrofuran-3-yl]-5-vinyl-4H-isoxazole-5-carboxamide], for which the pest or weed control at 80 g/ha in test [1], in [4], in test [6], in test [9], in [13] and in test [14] was 100% in each case. The pest or weed control at 80 g/ha is 100% in [17]; 90% in [18]; 100% in [20]; 100% in test [21]; 80 to 100% in test [22]; 100% in [25]. Moreover, the pest or weed control at 320 g/ha in test [2] was found to be 90%; in test [5], 80%; in test [7] it was 90%; in [27] it was 80%; in [10], 80%; in [12] it was 80%. Besides, the pest or weed control at 320 g/ha in test [15] was found to be 90%; in [16] it was 90%; in test [19], 80%; in test [23], 80%; in test [28] it was 90%; in test [24], 90%. Also, the “Pre-emergence herbicidal activity in % against PHBPU” value in test [3] was 90%. The “Pre-emergence herbicidal activity in % against ABUTH” value in test [26] was 80%.
Regarding `CC1(C(=O)NC2COCC2C(=O)N2CCCC2)CC(c2cc(F)cc(F)c2)=NO1` (centres unmarked) [Example I-09, 3-(3,5-difluorophenyl)-5-methyl-N-[4-(pyrrolidine-1-carbonyl)tetrahydrofuran-3-yl]-4H-isoxazole-5-carboxamide], the “Pre-emergence herbicidal activity in % against CYPES” value in test [11] was 100%. This compound also displayed a pest or weed control at 320 g/ha in test [23] of 80%.
